Measurements as given in publication PMC9728226, “Suppressive Effects of a Truncated Inhibitor K562 Protein-Derived Peptide on Two Proinflammatory Cytokines, IL-17 and TNF-α” (Journal of Microbiology and Biotechnology, 2020).
Peptide text beside a SMILES is read from it.

Experiments:
[1] = tested on: Th17 cell differentiation (mouse IL-17); format: cell-based; settings: 1.0 μg/ml; second experiment (Fig. 3B), control 0.1% DMSO; IL-17 ELISA; mean of n = 3
Experimental: Naïve CD4^+ T cells were isolated from the spleen of wild-type Balb/c mice via magnetic-activated cell sorting using a CD4^+ T Cell Isolation Kit (Miltenyi Biotec, Germany), in accordance with the manufacturer’s instructions. The RPMI medium for stimulating Th17 cell differentiation included 10 μg/ml anti-CD3 (eBioscience, USA), 1.5 μg/ml anti-CD28 (eBioscience), 5 ng/ml transforming growth factor-β (R&D Systems, USA), and 20 ng/ml IL-6 (BioLegend, USA). After cells had been cultured in this conditioned medium for 2 days at 37°C, 100 μl of the supernatant was analyzed for mouse IL-17 (mIL-17) using an IL-17-specific enzyme-linked immunosorbent assay (ELISA). All tests were repeated three times independently, and the means and standard deviations (SDs) from three tests were calculated.

[2] = tested on: mTNF-α secretion by J774A.1 cells; assay: mTNF-α secretion by LPS-stimulated J774A.1 cells, ELISA; format: cell-based, mouse; settings: 24 h, mean of n = 3; for inhibition of mTNF-α: J774A.1 cells, 100 ng/ml LPS, Fig. 3D
Experimental: The murine monocyte/macrophage cell line J774A.1 was obtained from the American Type Culture Collection (ATCC, USA), grown in Dulbecco’s modified Eagle’s medium (Gibco Laboratories, USA), and cultured at 37°C in humidified 5% CO2. The culture medium was supplemented with 10% fetal bovine serum and 2 mM glutamine. The cells were seeded into 24-well culture plates at a density of 1 × 10^5/ml and allowed to adhere overnight. Thereafter, the medium was replaced with fresh medium. The cells were pre-treated with DMS or a peptide (P1, P2, P3, P4, or P4S) and then stimulated with 100 ng/ml of lipopolysaccharide (LPS). Supernatants were collected after 24 h and stored at -20°C. Concentrations of mouse TNF-α (mTNF-α) were measured using ELISA (Mouse TNF-α DuoSet ELISA Kit; R&D Systems Europe, UK) according to the manufacturer’s instructions. All tests were repeated three times independently, and the results are expressed as means ± SDs.

Row | Compound | inhibition of mIL-17 [1] | inhibition of mTNF-α ([2]; 0.1 μg/ml) | inhibition of mTNF-α ([2]; 1.0 μg/ml) | inhibition rate against mTNF-α ([2]; 1 μg/ml, J774A.1 cells pre-treated, then 100 ng/ml LPS, vs LPS-only group, Fig. 3C)
1 | YPATMDDMA [P4S, 9-mer human tIK-derived peptide, fragment homolog of P4] | 43.8% | 45.5% | 50.7% | 
2 | CSCC[C@H](NC(=O)[C@H](CC(=O)O)NC(=O)[C@H](CC(=O)O)NC(=O)[C@H](CCSC)NC(=O)[C@@H](NC(=O)[C@H](C)NC(=O)[C@@H]1CCCN1C(=O)[C@@H](N)Cc1ccc(O)cc1)[C@@H](C)O)C(=O)N[C@@H](C)C(=O)N[C@H](C(=O)N[C@@H](CC(=O)O)C(=O)N[C@@H](CO)C(=O)N[C@@H](CC(=O)O)C(=O)N[C@@H](CCC(=O)O)C(=O)N[C@@H](CCC(=O)O)C(=O)N[C@H](C(=O)N[C@@H](CC(=O)O)C(=O)N[C@@H](Cc1ccc(O)cc1)C(=O)O)C(C)C)C(C)C [P4] (H-YPATMDDMAVDSDEEVDY-OH; N-terminus and C-terminus assumed) | 42.4% |  |  | 50.2%
